What was measured:
human ALX receptor = biological target: T1, human ALX receptor (Homo sapiens, UniProt P25090); assay: Intracellular calcium measurements (FLIPR), agonistic activity in HEK293-hALXR-Gα16 cells; type: cell-based; conditions: Fluo-4 calcium FLIPR, normalized to WKYMVm 10 nM
T1 construct: expressed in transfected cells; host or cells: HEK293 (HEK293-hALXR-Gα16)
T1 sequence (P25090 1-351): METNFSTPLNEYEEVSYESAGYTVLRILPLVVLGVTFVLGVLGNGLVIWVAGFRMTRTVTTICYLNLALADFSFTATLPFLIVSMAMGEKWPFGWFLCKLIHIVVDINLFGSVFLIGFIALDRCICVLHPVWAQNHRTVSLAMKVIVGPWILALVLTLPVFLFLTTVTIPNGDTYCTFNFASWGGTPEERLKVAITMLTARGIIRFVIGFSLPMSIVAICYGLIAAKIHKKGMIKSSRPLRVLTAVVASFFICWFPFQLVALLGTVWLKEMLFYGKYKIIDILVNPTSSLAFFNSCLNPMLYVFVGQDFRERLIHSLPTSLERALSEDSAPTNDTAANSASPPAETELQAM
Method in brief: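 Agonist-induced calcium flux was recorded by FLIPR (488/540 nm) in HEK293-hALXR-Gα16 cells pre-loaded with Fluo-4 AM (1 μM, 60 min, 37°C). Peak signal above baseline, after subtracting buffer addition, was expressed relative to WKYMVm at 10 nM final.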

human FPRL2 = biological target: T2, human FPRL2 (Homo sapiens, UniProt P25089); assay: Intracellular calcium measurements (FLIPR), agonistic activity in HEK293-hFPRL2-Gα16 cells; type: cell-based; conditions: Fluo-4 calcium FLIPR, normalized to GLY14-Humanin 100 nM
T2 construct: expressed in transfected cells; host or cells: HEK293 (HEK293-hFPRL2-Gα16)
T2 sequence (P25089 1-353): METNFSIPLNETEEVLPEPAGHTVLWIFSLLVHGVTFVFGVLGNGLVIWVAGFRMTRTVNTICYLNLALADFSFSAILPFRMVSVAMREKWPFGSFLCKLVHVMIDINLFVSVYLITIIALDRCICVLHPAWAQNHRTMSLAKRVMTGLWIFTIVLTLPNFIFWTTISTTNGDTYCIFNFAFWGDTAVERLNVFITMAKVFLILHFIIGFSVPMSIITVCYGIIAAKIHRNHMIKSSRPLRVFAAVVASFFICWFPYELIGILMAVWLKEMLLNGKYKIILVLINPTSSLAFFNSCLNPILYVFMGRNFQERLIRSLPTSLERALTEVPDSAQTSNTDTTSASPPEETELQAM
Method in brief: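 Peak values after baseline subtraction are expressed relative to 100 nM Gly14-Humanin; compounds diluted in assay buffer from 10 mM DMSO stocks.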

Row | Structure (SMILES) | EC50 (human ALX receptor) [nM] | EC50 (human FPRL2) [nM]
1 | Cc1ccc(NC(=O)[C@H]2[C@H](C(=O)NCCC(N)=O)[C@H]3C=C[C@@H]2C32CC2)nc1 [Example 313, (5R)—N^5-(5-Methyl-pyridin-2-yl)-(6R)—N^6-(3-amino-3-oxopropyl)-(4S,7R)-[4,7-ethenylene-spiro[2.4]heptane]-5,6-dicarboxamide] | 330 | > 25000
2 | O=C(NCCCCN1CCCC1)[C@H]1[C@H](C(=O)Nc2cc(F)c(Br)cc2F)[C@@H]2C=C[C@H]1C21CC1 [Example 314, (5R)—N^5-(4-Bromo-2,5-difluorophenyl)-(6R)—N^6-(4-pyrrolidino-butyl)-(4S,7R)-[4,7-ethenylene-spiro[2.4]heptane]-5,6-dicarboxamide] | 103 | 204
3 | O=C(NCCCCN1CCCC1)[C@H]1[C@H](C(=O)Nc2c(F)cc(Br)cc2F)[C@@H]2C=C[C@H]1C21CC1 [Example 315, (5R)—N^5-(4-Bromo-2,6-difluorophenyl)-(6R)—N^6-(4-pyrrolidino-butyl)-(4S,7R)-[4,7-ethenylene-spiro[2.4]heptane]-5,6-dicarboxamide] | 9.4 | 296
4 | O=C(NCCCCN1CCCC1)[C@H]1[C@H](C(=O)Nc2ccc(Br)c(F)c2F)[C@@H]2C=C[C@H]1C21CC1 [Example 316, (5R)—N^5-(4-Bromo-2,3-difluorophenyl)-(6R)—N^6-(4-pyrrolidino-butyl)-(4S,7R)-[4,7-ethenylene-spiro[2.4]heptane]-5,6-dicarboxamide] | 236 | 122
5 | O=C(NCCCCN1CCCC1)[C@H]1[C@H](C(=O)NCc2c(F)cc(Br)cc2F)[C@@H]2C=C[C@H]1C21CC1 [Example 317, (5R)—N^5-(4-Bromo-2,6-difluorophenyl-methyl)-(6R)—N^6-(4-pyrrolidin-1-yl-butyl)-(4S,7R)-[4,7-ethenylene-spiro[2.4]heptane]-5,6-dicarboxamide] | 28 | 44
6 | O=C(NCCCCN1CCCC1)[C@H]1[C@H](C(=O)NCc2ccc(Br)cc2F)[C@@H]2CC[C@H]1C21CC1 [Example 318, (5R)—N^5-(4-Bromo-2-fluorophenyl-methyl)-(6R)—N^6-(4-pyrrolidino-butyl)-(4S,7R)-[4,7-ethylene-spiro[2.4]heptane]-5,6-dicarboxamide] | 13 | 18
7 | NCCCCCNC(=O)[C@H]1[C@H](C(=O)NCc2ccc(Br)cc2F)[C@@H]2C=C[C@H]1C21CC1 [Example 319, (5R)—N^5-(4-Bromo-2-fluorophenyl-methyl)-(6R)—N^6-(5-amino-pentyl)-(4S,7R)-[4,7-ethenylene-spiro[2.4]heptane]-5,6-dicarboxamide] | 55 | 331
8 | NCCCCNC(=O)[C@H]1[C@H](C(=O)NCc2ccc(Br)cc2F)[C@@H]2C=C[C@H]1C21CC1 [Example 320, (5R)—N^5-(4-Bromo-2-fluorophenyl-methyl)-(6R)—N^6-(4-amino-butyl)-(4S,7R)-[4,7-ethenylene-spiro[2.4]heptane]-5,6-dicarboxamide] | 52 | 472
9 | O=C(NCCCCN1CCCC1)[C@H]1[C@H](C(=O)NCc2ccc(Br)c(F)c2)[C@@H]2C=C[C@H]1C21CC1 [Example 321, (5R)—N^5-(4-Bromo-3-fluorophenyl-methyl)-(6R)—N^6-(4-pyrrolidino-butyl)-(4S,7R)-[4,7-ethenylene-spiro[2.4]heptane]-5,6-dicarboxamide] | 117 | 15
10 | NCCCCCNC(=O)C1C(C(=O)Nc2ncc(Br)s2)C2C=CC1C21CC1 [Example 322, (5R)—N^5-(5-Bromo-thiazol-2-yl)-(6R)—N^6-(5-amino-pentyl)-(4S,7R)-[4,7-ethenylene-spiro[2.4]heptane]-5,6-dicarboxamide] | 0.61 | 382
11 | O=C(NC1CCNCC1)[C@H]1[C@H](C(=O)Nc2ncc(Br)s2)[C@@H]2C=C[C@H]1C21CC1 [Example 323, (5R)—N^5-(5-Bromo-thiazol-2-yl)-(6R)—N^6-(piperidin-4-yl)-(4S,7R)-[4,7-ethenylene-spiro[2.4]heptane]-5,6-dicarboxamide] | 17 | 4690
12 | O=C(NCC1CCNCC1)C1C(C(=O)Nc2ncc(Br)s2)C2C=CC1C21CC1 [Example 324, (5R)—N^5-(5-Bromo-thiazol-2-yl)-(6R)—N^6-(piperidin-4-yl-methyl)-(4S,7R)-[4,7-ethenylene-spiro[2.4]heptane]-5,6-dicarboxamide] | 5.7 | 1540
13 | NCC1CCN(C(=O)[C@H]2[C@H](C(=O)Nc3ncc(Br)s3)[C@@H]3C=C[C@H]2C32CC2)CC1 [Example 325, (5R)—N^5-(5-Bromo-thiazol-2-yl)-(6R)—N^6,N^6-(3-(aminomethyl)pentane-1,5-diyl)-(4S,7R)-[4,7-ethenylene-spiro[2.4]heptane]-5,6-dicarboxamide] | 19 | > 14100
14 | NCCCCCNC(=O)[C@H]1[C@H](C(=O)NCc2ccc(Br)cc2F)[C@@H]2CC[C@H]1C21CC1 [Example 326, (5R)—N^5-(4-Bromo-2-fluorophenyl-methyl)-(6R)—N^6-(5-amino-pentyl)-(4S,7R)-[4,7-ethylene-spiro[2.4]heptane]-5,6-dicarboxamide] | 22 | 930
15 | O=C(NCCCCN1CCCC1)[C@H]1[C@H](C(=O)NCc2ccc(Br)c(F)c2F)[C@@H]2C=C[C@H]1C21CC1 [Example 327, (5R)—N^5-(4-Bromo-2,3-difluorophenyl-methyl)-(6R)—N^6-(4-pyrrolidino-butyl)-(4S,7R)-[4,7-ethenylene-spiro[2.4]heptane]-5,6-dicarboxamide] | 40 | 27
16 | O=C(NCCCCN1CCCC1)[C@H]1[C@H](C(=O)NCc2cc(F)c(Br)c(F)c2)[C@@H]2C=C[C@H]1C21CC1 [Example 328, (5R)—N^5-(4-Bromo-3,5-difluorophenyl-methyl)-(6R)—N^6-(4-pyrrolidino-butyl)-(4S,7R)-[4,7-ethenylene-spiro[2.4]heptane]-5,6-dicarboxamide] | 46 | 60
17 | O=C(NCCCCN1CCCC1)[C@H]1[C@H](C(=O)NCc2cc(F)c(Br)cc2F)[C@@H]2C=C[C@H]1C21CC1 [Example 329, (5R)—N^5-(4-Bromo-2,5-difluorophenyl-methyl)-(6R)—N^6-(4-pyrrolidino-butyl)-(4S,7R)-[4,7-ethenylene-spiro[2.4]heptane]-5,6-dicarboxamide] | 301 | 64
18 | O=C(NC1CCNCC1)[C@H]1[C@H](C(=O)Nc2ncc(Br)s2)[C@@H]2CC[C@H]1C21CC1 [Example 330, (5R)—N^5-(5-Bromo-thiazol-2-yl)-(6R)—N^6-(piperidin-4-yl)-(4S,7R)-[4,7-ethylene-spiro[2.4]heptane]-5,6-dicarboxamide] | 24 | 4420
19 | CC(C)CNC(=O)[C@H]1[C@H](C(=O)Nc2ncc(Br)s2)[C@@H]2CC[C@H]1C21CC1 [Example 331, (5R)—N^5-(5-Bromo-thiazol-2-yl)-(6R)—N^6-(isobutyl)-(4S,7R)-[4,7-ethylene-spiro[2.4]heptane]-5,6-dicarboxamide] | 82 | 8250
20 | CC(C)(C)OC(=O)NCCCCNC(=O)[C@H]1[C@H](C(=O)Nc2ncc(Br)s2)[C@@H]2CC[C@H]1C21CC1 [Example 332, (5R)—N^5-(5-Bromo-thiazol-2-yl)-(6R)—N^6-(4-tert-butoxycarbonyl-amino-butyl)-(4S,7R)-[4,7-ethylene-spiro[2.4]heptane]-5,6-dicarboxamide] | 467 | 3540
21 | CC(C)(C)OC(=O)NCCCCCNC(=O)C1C(C(=O)Nc2ncc(Br)s2)C2CCC1C21CC1 [Example 333, (5R)—N^5-(5-Bromo-thiazol-2-yl)-(6R)—N^6-(5-tert-butoxycarbonyl-amino-pentyl)-(4S,7R)-[4,7-ethylene-spiro[2.4]heptane]-5,6-dicarboxamide] | 519 | 1240
22 | NCCCCCNC(=O)[C@H]1[C@H](C(=O)Nc2ncc(Br)s2)[C@@H]2CC[C@H]1C21CC1 [Example 334, (5R)—N^5-(5-Bromo-thiazol-2-yl)-(6R)—N^6-(5-amino-pentyl)-(4S,7R)-[4,7-ethylene-spiro[2.4]heptane]-5,6-dicarboxamide] | 0.45 | 230
23 | NCCCCNC(=O)[C@H]1[C@H](C(=O)Nc2ncc(Br)s2)[C@@H]2CC[C@H]1C21CC1 [Example 335, (5R)—N^5-(5-Bromo-thiazol-2-yl)-(6R)—N^6-(4-amino-butyl)-(4S,7R)-[4,7-ethylene-spiro[2.4]heptane]-5,6-dicarboxamide] | 0.5 | 1300

From patent US8563714B2, “Bridged spiro [2.4] heptane derivatives as ALX receptor and/or FPRL2 agonists” (Actelion Pharmaceuticals Ltd., priority 2009, dated 2013)
